Source: patent EP1362858A1, “Pyrrolopyrimidinone derivates, process of preparation and use” (SK Chemicals Co., Ltd., priority 2002, dated 2003)
Read-outs that look alike come from different tables or passages of the source.

Biological target: rabbit platelet PDE V (Oryctolagus cuniculus, UniProt G1SX67)
Experiment: PDE V inhibition, PDE SPA assay kit with [3H]-cGMP
Format: biochemical
Description: The rabbit platelet PDE V was prepared using the method described by Hidaka et al. (Biochim. Biophys. Acta., 429: 485 - 497, 1976) with minor modification. The plateletrich plasma (PRP) was prepared by centrifugation of freshly obtained heparinized whole blood at 360 g. Platelets were isolated from the PRP by centrifugation at 1,200 g. Platelet homogenates were prepared in the homogenization buffer (50 mM Tris-HCl buffer containing 1 mM MgCl2, pH 7.4) by sonication for 30 s per 1 mL. The homogenized solutions were then centrifuged at 40,000 × g for 2 h at 4 °C. The supernatant was loaded on the DEAE-cellulose column (20 mL bed volume, Sigma) pre-equilibrated with equilibration buffer (50 mM Tris-acetate containing 3.75 mM 2-mercaptoethanol, pH 6.0). The column was then washed with 60 mL of equilibration buffer. The PDE isozymes were eluted using a continuous gradient of 0 to 600 mM sodium acetate in the equilibration buffer (60 mL total volume). The 1.0 mL fractions were collected. A flow rate of 60 mL/h was used throughout the ion-exchange chromatography procedure. PDE activities on cAMP and cGMP were characterized as described below. The characterized fractions were pooled and stored at -80 °C until the inhibition studies.
The cyclic nucleotide PDE V activity was determined using PDE SPA assay kit (Amersham Pharmacia biotech, UK). Each reaction mixture (100 µL total volume) consisted of the column elute containing PDE V (10 µL), [^3H]-cGMP (5 µCi/mL), bovine serum albumin (0. 5 mg/mL), and MgCl2 (5 mM) in Tris-HCl buffer (15 mM, pH 7. 5). The reactions were initiated by the addition of PDE V and the samples were incubated at 30 °C for 30 min, after which the reaction was stopped by the addition of 50 µL of SPA beads. The reaction tube was then settled for 20 min and was counted on the scintillation counter (Tri-carb 1500, Packard, USA). For the inhibition study of PDE V activity, the test compounds were dissolved in dimethyl sulfoxide (DMSO) and was diluted with distilled water. The final concentration of DMSO was less than 0. 2% (v/v).

[1] = in vitro inhibition of cGMP PDE V, 30 °C, 30 min, read-out: IC50

Compound	IC50 [1]	IC50
CCCOc1ccc(S(=O)(=O)N2CCN(CCOC(C)=O)CC2)cc1-c1nc2c(CCC)cn(CC)c2c(=O)[nH]1 [Example 7, 2-{5-[4-(2-Acetoxyethyl)piperazin-1-ylsulfonyl]-2-n-propoxyphenyl}-5-ethyl-7-n-propyl-3,5-dihydro-4H-pyrrolo[3,2-d]pyrimidin-4-one]	2.84 nM	–
CCCOc1ccc(S(=O)(=O)N2CCN(CCOC(=O)CC)CC2)cc1-c1nc2c(CCC)cn(CC)c2c(=O)[nH]1 [Example 10, 5-Ethyl-2-{5-[4-(2-propionyloxyethyl)piperazin-1-ylsulfonyl]-2-n-propoxyphenyl}-7-n-propyl-3,5-dihydro-4H-pyrrolo[3,2-d]pyrimidin-4-one]	5.73 nM	–
CCCOc1ccc(S(=O)(=O)N2CCN(CCOC(=O)CCC)CC2)cc1-c1nc2c(CCC)cn(CC)c2c(=O)[nH]1 [Example 12, 2-{5-[4-(2-Butyryloxyethyl)piperazin-1-ylsulfonyl]-2-n-propoxyphenyl}-5-ethyl-7-n-propyl-3,5-dihydro-4H-pyrrolo[3,2-d]pyrimidin-4-one]	8.87 nM	–
CCCOc1ccc(S(=O)(=O)N2CCN(CCOC(=O)C(C)C)CC2)cc1-c1nc2c(CCC)cn(CC)c2c(=O)[nH]1 [Example 14, 5-Ethyl-2-{5-[4-(2-isobutyryloxyethyl)piperazin-1-ylsulfonyl]-2-n-propoxyphenyl}-7-n-propyl-3,5-dihydro-4H-pyrrolo[3,2-d]pyrimidin-4-one]	8.8 nM	–
CCCOc1ccc(S(=O)(=O)N2CCN(CCOC(=O)c3ccccc3)CC2)cc1-c1nc2c(CCC)cn(CC)c2c(=O)[nH]1 [Example 16, 2-{5-[4-(2-Benzoyloxyethyl)piperazin-1-ylsulfonyl]-2-n-propoxyphenyl}-5-ethyl-7-n-propyl-3,5-dihydro-4H-pyrrolo[3,2-d]pyrimidin-4-one]	14.4 nM	–
CCCOc1ccc(S(=O)(=O)N2CCN(CCOC(=O)OCC)CC2)cc1-c1nc2c(CCC)cn(CC)c2c(=O)[nH]1 [Example 17, 2-{5-[4-(2-Ethoxycarbonyloxyethyl)piperazin-1-ylsulfonyl]-2-n-propoxyphenyl}-5-ethyl-7-n-propyl-3,5-dihydro-4H-pyrrolo[3,2-d]pyrimidin-4-one]	7.65 nM	–
CCCOc1ccc(S(=O)(=O)N2CCN(CCOC(C)=O)CC2)cc1-c1nc2c(CCCF)cn(CC)c2c(=O)[nH]1 [Example 19, 2-{5-[4-(2-Acetoxyethyl)piperazin-1-ylsulfonyl]-2-n-propoxyphenyl}-5-ethyl-7-(3-fluoropropyl)-3,5-dihydro-4H-pyrrolo[3,2-d]pyrimidin-4-one]	1.48 nM	–
CCCOc1ccc(S(=O)(=O)N2CCN(CCOC(=O)Cc3ccccc3)CC2)cc1-c1nc2c(CCC)cn(CC)c2c(=O)[nH]1 [Example 24, 5-Ethyl-2-{5-[4-(2-phenylacetoxyethyl)piperazin-1-ylsulfonyl]-2-n-propoxyphenyl}-7-n-propyl-3,5-dihydro-4H-pyrrolo[3,2-d]pyrimidin-4-one]	–	8.68 nM
